Earlier results on one compound are cited in paper PMC6021394, “Novel haptens and monoclonal antibodies with subnanomolar affinity for a classical analytical target, ochratoxin A” (Scientific Reports, 2018).

Consider `C[C@@H]1Cc2c(Cl)cc(C(=O)N[C@@H](Cc3ccccc3)C(=O)O)c(O)c2C(=O)O1` [OTA, Ochratoxin A], for which the tolerable weekly intake (European Food Safety Authority) is reported as 120 ng/kg of body weight. Further, the IARC carcinogenicity classification result (possibly carcinogenic to humans) is “group 2B”.
